From patent US20160374979A1, “Method of Treatment of Alopecia with Monoterpenoids” (CELLMID LIMITED, priority 2013, published 2016)
“Also recorded” adds a separate entry of the source.

Legend:
[1] = tested on: FGF-5-dependent cell proliferation (FR-BaF3 cells expressing FGFR-1c); assay: FR-Ba/F3 cell proliferation/viability assay in the presence of FGF-5 (CCK-8); assay type: cell-based, murine; conditions: for Suppression of FGF-5-dependent cell proliferation and viability: FR-BaF3 cells, in words (FIGS. 1(a)-1(h)); for FGF-5 Specificity IL-1/FGF-5: ratio of the IC50 with IL-3 to the IC50 with FGF-5, BR: less reproducible; for FGF-5-inhibitory activity (in words): judged from FR-BaF3 result
Protocol: Ba/F3 is a murine interleukin-3 (IL-3)-dependent pro-B cell line. […] That is, compounds were tested for their ability to modulate proliferation of FR-Ba/F3 cells in the presence of recombinant human FGF-5 (rhFGF-5) prepared according to Maeda et al., Nishi Nihon Hifuka, 69(1): 81-86, 2007.
Briefly, a suitable plasmid expressing FGFR-1c was introduced into […] ER-Ba/F3 cells, and the cells were maintained in RPMI RPMI-1640 with 10% FBS and 1.3×10^−17 M of murine IL-3 (Sigma, St Louis, […].) containing antibiotic G418 sulfate (Promega, Medison, Wis.). The inventors compared proliferation of FR/BaF3 cells in culture medium containing IL3 or FGF-5 and a different concentration in the range from 0.005% (w/v) to 1.0% (w/v) of each test compound listed in Example 1. The FR-BaF3 cells were seeded at 5×10^4/mL cells per well in 96-well, micro-culture plates (Falcon) in RPMI-1640 culture medium containing 10% fetal bovine serum, 5 μg/mL heparin. Recombinant human FGF-5 (rhFGF-5; 1 μg/mL) was added to one group, and IL-3 (0.2 ng/mL) (Sigma) was added to another group. The test compounds were then introduced to the micro-culture plate wells. Total volume of media per well was 100 μl. Control groups lacking test compound were also prepared for each of the IL-3-supplemented and FGF-5-supplemented samples. The plates were then incubated at 37° C. in 5% CO2 for 3 days.
After 3 days, colorimetric assays were performed using a Cell Counting Kit-8 (CCK-8) (Wako) according to the manufacturer's instructions to measure cell proliferation or suppression thereof by the test compound at varying concentrations. Briefly, 10 μl (1:2 dilution) of the CCK-8 reagent was added to each micro-culture plate well after which time the plates were incubated at […] for 3 hours. Absorbance at 450 nm was then measured using a microplate reader. Cell viability and proliferation for the IL-3-supplemented and FGF-5-supplemented groups was calculated as a measure of the optical density (OD) of cells treated with a test compound relative to the OD of the respective untreated controls, excluding the OD of blank controls (media only). Dose response curves were plotted and the respective inhibitory concentrations (IC50) for the test compounds were determined.

[2] = tested on: Alkaline Phosphatase (ALP) activity in dermal papilla (DP) cells treated with FGF-5; assay: Dermal papilla alkaline phosphatase (DP-ALP) cell assay; assay type: cell-based, human; conditions: for relative ALP activity of DP cells treated FGF-5: 0.005-0.5 mg/ml, GSK3 inhibitor IX + rhFGF-5 1 μg/mL, 3 days, absorbance 490 nm; for FGF-5-inhibitory activity ranked from most active to least active by DP-ALP assay: rank order
Protocol: Dermal papilla cells were prepared according to the methods described in WO2013/105417, Briefly, hairs were pulled from the scalp of a healthy subject showing normal non-alopecia hair growth using tweezers. Hair follicles with dermal papilla were thus obtained at a rate of approximately one for every 100 hairs pulled. The hair follicles with dermal papilla were separated from the hair using tweezers and transferred into a saline for inspection under a microscope. Under a microscope, each dermal papilla was isolated from a respective hair follicle using tweezers and a scalpel. Approximately 2000 isolated dermal papilla cells were then transferred to a 35 mm cell culture dish together 1-2 ml of cell culture medium, after which time the cells were cultured at 37° C. to produce a primary cell culture of dermal papilla. The cell culture medium consisted of approximately 90% DMEM medium, 10% fetal bovine serum (final concentration: 10%), FGF2 (final, concentration: 10 ng/ml), and penicillin-streptornycin solution (final concentration: 1 μg/ml) for every 2 mL of medium. Cell culture conditions were maintained for more than 14 days until dermal papilla cells covered approximately 40% of the area of the 35 mm culture dish, at which time subcultures were performed. To prepare the subcultures, the cell culture medium was removed from the 35 mm culture dish and the adherent cells were washed once with 2 ml of saline (at room temperature). 1 ml Trypsin-EDTA solution (0.1% trypsin and 0.02% EDTA) was then added to the 35 mm culture dish and left to stand for 4 minutes at 37° C. Dissociated dermal papilla cells were then recovered from the 35 mm dish, and seeded to a new 100 mm dish, and cultured in media under the same conditions as for the primary cell culture described above.
When the dermal papilla cells covered approximately 70-80% of the area of each 100 mm culture dish, the sub-confluent cells were subcultured as before. The process was repeated until sufficient cells were obtained to screen compounds of interest.
Once sufficient DP cells were obtained, the cells were harvested to provide a cell suspension. To harvest the DP cells, the cell culture medium was removed from the culture dish, and the adherent cells were washed with saline at room temperature. Trypsin-EDTA solution was then added under conditions described supra to dissociate the cells from the cell culture dish. Approximately 5×10^5 of the dissociated cells were resuspended in 500 ml of assay medium containing 445 ml of DMEM medium, 50 ml of 10% fetal calf serum and 5 ml of antibiotic.
Aliquots of the cell suspension were transferred to the wells of cell culture dishes, and a single monoterpenoid listed in Example 1 e.g., (−)-4-terpinen-4-ol, (+)-4-terpinen-4-ol. (±)-4-terpinen-4-ol, α-terpineol, nonanal, linalyl acetate or piperitone, is added to each well at a concentration of 0.005 (mg/ml) or 0.01 (mg/ml) or 0.05 (mg/ml) or 0.1 (mg/ml) or 0.5 (mg/ml). Cell suspensions were transferred to wells of a further cell culture dish to which minoxidil was then added at a concentration of 0.005 (mg/ml) or 0.01 (mg/ml) or 0.05 (mg/ml) or 0.1 (mg/ml) or 0.5 (mg/ml). A Wnt/β-catenin pathway activation agent e.g., Wnt3a or GSK-3 Inhibitor IX, as added to each of the cell cultures to produce an “activated cell culture”. Control cell cultures containing the same monoterpenoid compound or minoxodil, but lacking the Wnt/β-cinenin pathway activation agent, were processed in parallel. These activated and control cell cultures were divided further into duplicate cell culture samples either lacking FGF-5 or to which recombinant human FGF-5 (rhFGF-5; 1 μg/mL)) was added.
The cell culture samples were each cultured at 37° C. for 3 days under atmosphere containing less than 5% CO2. […]

| SMILES | Suppression of FGF-5-dependent cell proliferation and viability [1] | FGF-5 Specificity IL-1/FGF-5 [1] | FGF-5-inhibitory activity (in words) [1] | relative ALP activity of DP cells treated FGF-5 [2] | FGF-5-inhibitory activity ranked from most active to least active by DP-ALP assay [2] | FGF-5-inhibitory activity (in words) ([1]; listed as (−)-terpinen-4-ol) |
| --- | --- | --- | --- | --- | --- | --- |
| C=CC(C)(O)CCC=C(C)C (stereo not drawn) [Linalool, 3,7-Dimethyl-1,6-octadien-3-ol] | Suppression of FGF-5-dependent cell proliferation and viability was observed | 30> (BR) |  |  |  |  |
| CC1=CC[C@](O)(C(C)C)CC1 [(+)-4-Terpinen-4-ol, (1S)-1-Isopropyl-4-methyl-3-cyclohexen-1-ol] | Suppression of FGF-5-dependent cell proliferation and viability was observed | 9.1> | potent FGF-5-inhibitory active substances | increased relative ALP activity | Piperitone>(−)-terpinen-4-ol>(±)-Terpinen-4β-Terpineol> (+)-Terpinen-4-ol > Linalyl Acetate |  |
| CC(=O)OC/C=C(\C)CCC=C(C)C [Geranyl acetate, (2E)-3,7-Dimethyl-2,6-octadien-1-yl acetate] | Suppression of FGF-5-dependent cell proliferation and viability was observed | 8 (BR) |  |  |  |  |
| CCCCCCCCC=O [Nonanal, reference compound] |  | 9 | potent FGF-5-inhibitory active substances |  |  |  |
| CC1=CCC(O)(C(C)C)CC1 (racemic) [(±)-4-Terpinen-4-ol, 1-Isopropyl-4-methyl-3-cyclohexen-1-ol] |  |  | potent FGF-5-inhibitory active substances | increased relative ALP activity | Piperitone>(−)-terpinen-4-ol>(±)-Terpinen-4β-Terpineol> (+)-Terpinen-4-ol > Linalyl Acetate |  |
| CC1=CCC(C(C)(C)O)CC1 (stereo not drawn) [α-Terpineol, 2-(4-Methyl-3-cyclohexen-1-yl)-2-propanol] | Suppression of FGF-5-dependent cell proliferation and viability was observed | 5> | potent FGF-5-inhibitory active substances | increased relative ALP activity | Piperitone>(−)-terpinen-4-ol>(±)-Terpinen-4β-Terpineol> (+)-Terpinen-4-ol > Linalyl Acetate |  |
| CC1=CC[C@@](O)(C(C)C)CC1 [(−)-4-Terpinen-4-ol, (R)-1-Isopropyl-4-methyl-3-cyclohexen-1-ol] | Suppression of FGF-5-dependent cell proliferation and viability was observed | 2> | potent FGF-5-inhibitory active substances | high alkaline phosphatase activity; also recorded: higher alkaline phosphatase activity in dermal papillae than a racemic mixture of terpinen-4-al or (+)-Terpinen-4-ol; also recorded: increased relative ALP activity | Piperitone>(−)-terpinen-4-ol>(±)-Terpinen-4β-Terpineol> (+)-Terpinen-4-ol > Linalyl Acetate | high FGF-5 inhibitory activity; also recorded: higher FGF-5 inhibitory activity than (+)-terpinen-4-ol |
| C=C(C)C1CC=C(C)C(O)C1 (stereo not drawn) [l-Carveol, 2-Methyl-5-(1-methylethenyl)-2-cyclohexen-1-ol] | Suppression of FGF-5-dependent cell proliferation and viability was observed | 2 |  |  |  |  |
| C=CC(C)(CCC=C(C)C)OC(C)=O (stereo not drawn) [Linalyl acetate, 3,7-Dimethyl-1,6-octadien-3-yl acetate] | Suppression of FGF-5-dependent cell proliferation and viability was observed |  | potent FGF-5-inhibitory active substances |  | Piperitone>(−)-terpinen-4-ol>(±)-Terpinen-4β-Terpineol> (+)-Terpinen-4-ol > Linalyl Acetate |  |
